Test results from PubChem BioAssay (NCI).
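Assay format: 96-well plates, 48-hour exposure. TGI denotes the concentration required for complete inhibition of growth.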

Tests used:
Assay in all cases: growth of human tumour cells (NCI), 48 h
SR leukemia = system: SR leukemia
786-0 renal = system: 786-0 renal
HCT-15 colon = system: HCT-15 colon
SNB-19 CNS = system: SNB-19 CNS
IGROV1 ovarian = system: IGROV1 ovarian
SF-268 CNS = system: SF-268 CNS
HCT-116 colon = system: HCT-116 colon
UO-31 renal = system: UO-31 renal
KM12 colon = system: KM12 colon
COLO 205 colon = system: COLO 205 colon
ACHN renal = system: ACHN renal
SK-MEL-28 melanoma = system: SK-MEL-28 melanoma
RXF 393 renal = system: RXF 393 renal
SK-MEL-2 melanoma = system: SK-MEL-2 melanoma
OVCAR-5 ovarian = system: OVCAR-5 ovarian
CCRF-CEM leukemia = system: CCRF-CEM leukemia
DU-145 prostate = system: DU-145 prostate
UACC-257 melanoma = system: UACC-257 melanoma
HL-60(TB) leukemia = system: HL-60(TB) leukemia
HOP-62 NSCLC = system: HOP-62 NSCLC
M14 melanoma = system: M14 melanoma
OVCAR-4 ovarian = system: OVCAR-4 ovarian
A498 renal = system: A498 renal
LOX IMVI melanoma = system: LOX IMVI melanoma
MDA-N = system: MDA-N
NCI-H522 lung = system: NCI-H522 lung
PC-3 prostate = system: PC-3 prostate
HOP-92 NSCLC = system: HOP-92 NSCLC
T-47D breast = system: T-47D breast
RPMI-8226 leukemia = system: RPMI-8226 leukemia
UACC-62 melanoma = system: UACC-62 melanoma
HS 578T breast = system: HS 578T breast
MOLT-4 leukemia = system: MOLT-4 leukemia
BT-549 breast = system: BT-549 breast
MALME-3M melanoma = system: MALME-3M melanoma
MDA-MB-231 breast = system: MDA-MB-231 breast
NCI-H460 lung = system: NCI-H460 lung
SF-295 CNS = system: SF-295 CNS
OVCAR-8 ovarian = system: OVCAR-8 ovarian
CAKI-1 renal = system: CAKI-1 renal
SN12C renal = system: SN12C renal
EKVX NSCLC = system: EKVX NSCLC
A549 NSCLC = system: A549 NSCLC
NCI/ADR-RES ovarian = system: NCI/ADR-RES ovarian
OVCAR-3 ovarian = system: OVCAR-3 ovarian
HT29 colon = system: HT29 colon
SK-MEL-5 melanoma = system: SK-MEL-5 melanoma
SNB-75 CNS = system: SNB-75 CNS
MDA-MB-435 = system: MDA-MB-435
K-562 leukemia = system: K-562 leukemia
NCI-H23 lung = system: NCI-H23 lung
U251 CNS = system: U251 CNS
SK-OV-3 ovarian = system: SK-OV-3 ovarian
MCF7 breast = system: MCF7 breast
TK-10 renal = system: TK-10 renal
SW-620 colon = system: SW-620 colon
SF-539 CNS = system: SF-539 CNS
NCI-H226 lung = system: NCI-H226 lung
HCC-2998 colon = system: HCC-2998 colon

`N#CC(C#N)=Cc1c[nH]c(=O)[nH]c1=O` was tested, and the TGI (SR leukemia) was greater than 100 µM, the TGI (786-0 renal) was greater than 100 µM and the TGI (HCT-15 colon) was greater than 100 µM. The TGI (SNB-19 CNS) was greater than 100 µM, the TGI (IGROV1 ovarian) was greater than 100 µM and the TGI (SF-268 CNS) was greater than 100 µM. The TGI (HCT-116 colon) was greater than 100 µM, the TGI (UO-31 renal) was greater than 100 µM and the TGI (KM12 colon) was greater than 100 µM. For the same compound, the TGI (COLO 205 colon) was greater than 100 µM, the TGI (ACHN renal) was greater than 100 µM and the TGI (SK-MEL-28 melanoma) was greater than 100 µM. It also gave a TGI (RXF 393 renal) greater than 100 µM, a TGI (SK-MEL-2 melanoma) greater than 100 µM and a TGI (OVCAR-5 ovarian) greater than 100 µM. It also gave a TGI (CCRF-CEM leukemia) of 63.9 µM, a TGI (DU-145 prostate) greater than 100 µM and a TGI (UACC-257 melanoma) greater than 100 µM. For the same compound, the TGI (HL-60(TB) leukemia) was greater than 100 µM, the TGI (HOP-62 NSCLC) was greater than 100 µM and the TGI (M14 melanoma) was greater than 100 µM. The TGI (OVCAR-4 ovarian) was greater than 100 µM, the TGI (A498 renal) was greater than 100 µM and the TGI (LOX IMVI melanoma) was greater than 100 µM. It also gave a TGI (MDA-N) greater than 100 µM, a TGI (NCI-H522 lung) greater than 100 µM and a TGI (PC-3 prostate) greater than 100 µM. For the same compound, the TGI (HOP-92 NSCLC) was greater than 100 µM, the TGI (T-47D breast) was greater than 100 µM and the TGI (RPMI-8226 leukemia) was greater than 100 µM. For the same compound, the TGI (UACC-62 melanoma) was greater than 100 µM, the TGI (HS 578T breast) was greater than 100 µM and the TGI (MOLT-4 leukemia) was greater than 100 µM. It also gave a TGI (BT-549 breast) greater than 100 µM, a TGI (MALME-3M melanoma) greater than 100 µM and a TGI (MDA-MB-231 breast) greater than 100 µM. It also gave a TGI (NCI-H460 lung) greater than 100 µM, a TGI (SF-295 CNS) greater than 100 µM and a TGI (OVCAR-8 ovarian) greater than 100 µM. It also gave a TGI (CAKI-1 renal) greater than 100 µM, a TGI (SN12C renal) greater than 100 µM and a TGI (EKVX NSCLC) greater than 100 µM. The TGI (A549 NSCLC) was greater than 100 µM, the TGI (NCI/ADR-RES ovarian) was greater than 100 µM and the TGI (OVCAR-3 ovarian) was greater than 100 µM. The TGI (HT29 colon) was greater than 100 µM, the TGI (SK-MEL-5 melanoma) was greater than 100 µM and the TGI (SNB-75 CNS) was greater than 100 µM. It also gave a TGI (MDA-MB-435) greater than 100 µM, a TGI (K-562 leukemia) greater than 100 µM and a TGI (NCI-H23 lung) greater than 100 µM. The TGI (U251 CNS) was greater than 100 µM, the TGI (SK-OV-3 ovarian) was greater than 100 µM and the TGI (MCF7 breast) was greater than 100 µM. It also gave a TGI (TK-10 renal) greater than 100 µM, a TGI (SW-620 colon) greater than 100 µM and a TGI (SF-539 CNS) greater than 100 µM. The TGI (NCI-H226 lung) was greater than 100 µM.
Work on `CC(CCOc1ccc2ccc(=O)oc2c1)C1=CC(=O)C(C)(C)O1` (stereo not given) yielded a TGI (SR leukemia) of 3.42 µM, a TGI (HCC-2998 colon) of 5.71 µM and a TGI (786-0 renal) of 7.69 µM. The TGI (HCT-15 colon) was 5.68 µM, the TGI (SNB-19 CNS) was 18.2 µM and the TGI (IGROV1 ovarian) was 14.8 µM. It also gave a TGI (SF-268 CNS) of 5.28 µM, a TGI (HCT-116 colon) of 10 µM and a TGI (UO-31 renal) of 12.1 µM. For the same compound, the TGI (KM12 colon) was 7.41 µM, the TGI (COLO 205 colon) was 5.97 µM and the TGI (ACHN renal) was 12.4 µM. For the same compound, the TGI (SK-MEL-28 melanoma) was 12.2 µM, the TGI (SK-MEL-2 melanoma) was 26.3 µM and the TGI (OVCAR-5 ovarian) was 49.9 µM. It also gave a TGI (CCRF-CEM leukemia) of 3.18 µM, a TGI (DU-145 prostate) of 12.5 µM and a TGI (UACC-257 melanoma) of 20.6 µM. It also gave a TGI (HL-60(TB) leukemia) of 5.31 µM, a TGI (HOP-62 NSCLC) of 21.3 µM and a TGI (M14 melanoma) of 26.5 µM. It also gave a TGI (OVCAR-4 ovarian) of 22.5 µM, a TGI (A498 renal) of 5.52 µM and a TGI (LOX IMVI melanoma) greater than 100 µM. The TGI (MDA-N) was 16.4 µM, the TGI (NCI-H522 lung) was 3.11 µM and the TGI (PC-3 prostate) was 23.5 µM. The TGI (HOP-92 NSCLC) was 13.2 µM, the TGI (T-47D breast) was 6.06 µM and the TGI (RPMI-8226 leukemia) was 7.31 µM. It also gave a TGI (UACC-62 melanoma) of 14.9 µM, a TGI (HS 578T breast) of 6.84 µM and a TGI (MOLT-4 leukemia) of 6.37 µM. The TGI (BT-549 breast) was 11 µM, the TGI (MALME-3M melanoma) was 10.8 µM and the TGI (MDA-MB-231 breast) was 12.5 µM. For the same compound, the TGI (NCI-H460 lung) was 3.94 µM, the TGI (SF-295 CNS) was 14.3 µM and the TGI (OVCAR-8 ovarian) was 4.45 µM. It also gave a TGI (CAKI-1 renal) of 8.75 µM, a TGI (SN12C renal) of 4.09 µM and a TGI (EKVX NSCLC) of 15.1 µM. For the same compound, the TGI (A549 NSCLC) was 10.6 µM, the TGI (NCI/ADR-RES ovarian) was 5.62 µM and the TGI (OVCAR-3 ovarian) was 11.6 µM. For the same compound, the TGI (HT29 colon) was 10.4 µM, the TGI (SK-MEL-5 melanoma) was 24 µM and the TGI (MDA-MB-435) was 11.5 µM. It also gave a TGI (NCI-H23 lung) of 11.9 µM, a TGI (U251 CNS) of 10.3 µM and a TGI (SK-OV-3 ovarian) of 14.2 µM. For the same compound, the TGI (MCF7 breast) was 14.7 µM, the TGI (TK-10 renal) was 13.3 µM and the TGI (SW-620 colon) was 4.93 µM. The TGI (SF-539 CNS) was 4.37 µM and the TGI (NCI-H226 lung) was 22.5 µM.
`C[N+](C)(CCNc1ccc(NCC[N+](C)(C)Cc2ccc([N+](=O)[O-])cc2)c2c1C(=O)c1ccccc1C2=O)Cc1ccc([N+](=O)[O-])cc1` gave a TGI (SR leukemia) greater than 100 µM, a TGI (HCC-2998 colon) greater than 100 µM and a TGI (786-0 renal) greater than 100 µM. For the same compound, the TGI (HCT-15 colon) was greater than 100 µM, the TGI (SNB-19 CNS) was greater than 100 µM and the TGI (IGROV1 ovarian) was greater than 100 µM. It also gave a TGI (SF-268 CNS) greater than 100 µM, a TGI (HCT-116 colon) greater than 100 µM and a TGI (UO-31 renal) greater than 100 µM. It also gave a TGI (KM12 colon) greater than 100 µM, a TGI (COLO 205 colon) greater than 100 µM and a TGI (ACHN renal) greater than 100 µM. The TGI (SK-MEL-2 melanoma) was greater than 100 µM, the TGI (OVCAR-5 ovarian) was greater than 100 µM and the TGI (CCRF-CEM leukemia) was greater than 100 µM. It also gave a TGI (DU-145 prostate) greater than 100 µM, a TGI (UACC-257 melanoma) greater than 100 µM and a TGI (HL-60(TB) leukemia) greater than 100 µM. For the same compound, the TGI (HOP-62 NSCLC) was greater than 100 µM, the TGI (M14 melanoma) was greater than 100 µM and the TGI (OVCAR-4 ovarian) was greater than 100 µM. For the same compound, the TGI (A498 renal) was greater than 100 µM, the TGI (LOX IMVI melanoma) was greater than 100 µM and the TGI (MDA-N) was greater than 100 µM. It also gave a TGI (NCI-H522 lung) greater than 100 µM, a TGI (PC-3 prostate) greater than 100 µM and a TGI (HOP-92 NSCLC) greater than 100 µM. It also gave a TGI (T-47D breast) greater than 100 µM, a TGI (UACC-62 melanoma) greater than 100 µM and a TGI (HS 578T breast) greater than 100 µM. The TGI (MOLT-4 leukemia) was greater than 100 µM, the TGI (BT-549 breast) was greater than 100 µM and the TGI (MALME-3M melanoma) was greater than 100 µM. It also gave a TGI (MDA-MB-231 breast) greater than 100 µM, a TGI (NCI-H460 lung) greater than 100 µM and a TGI (SF-295 CNS) greater than 100 µM. For the same compound, the TGI (OVCAR-8 ovarian) was greater than 100 µM, the TGI (CAKI-1 renal) was greater than 100 µM and the TGI (SN12C renal) was greater than 100 µM. For the same compound, the TGI (EKVX NSCLC) was greater than 100 µM, the TGI (A549 NSCLC) was greater than 100 µM and the TGI (NCI/ADR-RES ovarian) was greater than 100 µM. For the same compound, the TGI (OVCAR-3 ovarian) was greater than 100 µM, the TGI (HT29 colon) was greater than 100 µM and the TGI (SK-MEL-5 melanoma) was greater than 100 µM. For the same compound, the TGI (SNB-75 CNS) was greater than 100 µM, the TGI (MDA-MB-435) was greater than 100 µM and the TGI (K-562 leukemia) was greater than 100 µM. For the same compound, the TGI (NCI-H23 lung) was greater than 100 µM, the TGI (U251 CNS) was greater than 100 µM and the TGI (SK-OV-3 ovarian) was greater than 100 µM. For the same compound, the TGI (MCF7 breast) was greater than 100 µM, the TGI (TK-10 renal) was greater than 100 µM and the TGI (SW-620 colon) was greater than 100 µM. For the same compound, the TGI (SF-539 CNS) was greater than 100 µM and the TGI (NCI-H226 lung) was greater than 100 µM.
